Results: PMC5698418 (Nature Communications, 2017)
Positions count from the first letter of the chain named. Numbers in names are those of the source.

How the values were obtained:
Arc protein [1] = assay: Western blot of total Arc protein in primary cortical neurons; type: cell-based, mouse
Experimental: Forebrains of E16.5 C57BL/6 mouse embryos were dissected and then dissociated in trypsin solution for 15 min followed by three washes with phosphate-buffered saline (PBS). Single-cell suspension was achieved by gentle pipet trituration. Neurons were seeded in poly-L-lysine/laminin-coated six-well plates at a density of 2 × 10^6 per well and maintained in neurobasal medium containing B27 supplement (2%, Invitrogen, Grand Island, NY), penicillin (50 units ml^−1, Invitrogen), streptomycin (50 µg ml^−1, Invitrogen), and glutamine (1 mM, Sigma). For experiments involving BDNF (EMD Millipore Corps, Billerica, MA), the stock solution (2 ng µl^−1 in water) was added directly to the culture medium at a final concentration of 100 ng ml^−1 for the indicated period of time.
The following procedure was used to quantify western blots. First, equal quantity of protein lysate was analyzed by SDS–PAGE for each biological replicate. Second, the exposure time of the film to the ECL chemiluminescence was the same for each biological replicate. Third, all the exposed films were scanned on a Brother MFC-J485DW scanner in grayscale at a resolution of 300 dpi. Fourth, the look-up table (LUT) of the scanned tiff images was inverted and the intensity of each band was individually measured using the selection tool and the histogram function in Adobe Photoshop CC 2015 software. […]

eIF4E phosphorylation = assay: Western blot of phospho-eIF4E in primary cortical neurons; type: cell-based, mouse; conditions: CGP 57380 5 µM co-treated 6 h with BDNF
Experimental: For western blot analyses, cells were collected by scraping in ice-cold radioimmunoprecipitation assay (RIPA) buffer (50 mM Tris-HCl (pH 8.0), 300 mM NaCl, 0.5% Igepal-630, 0.5% deoxycholic acid, 0.1% SDS, 1 mM EDTA) supplemented with a cocktail of protease inhibitors (Complete Protease Inhibitor without EDTA, Roche Applied Science, Indianapolis, IN) and phosphatase inhibitors (phosphatase inhibitor cocktail A, Santa Cruz Biotechnology). One volume of 2× Laemmli buffer (100 mM Tris-HCl (pH 6.8), 4% SDS, 0.15% bromophenol blue, 20% glycerol, 200 mM β-mercaptoethanol) was added and the extracts were boiled for 5 min. Samples were adjusted to an equal concentration after protein concentrations were determined using the BCA assay (Pierce, Thermo Fisher Scientific). Lysates were separated using SDS–PAGE and transferred to a nitrocellulose membrane. After transfer, the membrane was blocked in TBST (Tris-buffered saline + 0.1% Tween 20) supplemented with 5% nonfat powdered milk and probed with the indicated primary antibody at 4 °C overnight. After washing with TBST, the membrane was incubated with the appropriate secondary antibody and visualized using enhanced chemiluminescence (ECL) reagents according to the manufacturer’s guidelines (Pierce, Thermo Fisher Scientific). Uncropped scans with molecular weight reference are shown in Supplementary Figs. 10–20.

acetyl-H3K9 = assay: Acetyl-H3K9 immunofluorescence in neuronal nuclei (multiplexed in screen); type: cell-based, mouse; conditions: screen, 16.7 µM
Experimental: To increase the throughput of our pharmacological screening for modulators of Arc, the above mentioned assay was adapted to cultures of mouse primary cortical neurons in 96-well plates.
Screening of compounds in the chemogenomic library was carried out using DIV13 primary forebrain cortical neurons cultured on poly-L-lysine/laminin-coated 96-well plates (Ibidi USA, Madison, WI). Cells were seeded at a density of 30,000 cells per well and treated with the compound library and BDNF according to the experimental design presented in Fig. 3a. After experimental treatment, cells were processed for Arc and acetyl-H3K9 immunocytochemistry according to the protocol described above. Both antigens (Arc and acetyl-H3K9) were imaged using an IN Cell Analyzer 6000 imaging system and a ×40 objective. […] High-throughput quantification of nuclear Arc immunofluorescence signal was performed in a similar fashion than the low-throughput procedure described above but with the exception that acetyl-H3K9 was used as a nuclear mask to guide the automated quantification of nuclear Arc immunofluorescence signal.

Arc protein [2] = assay: Arc protein half-life after cycloheximide block in primary cortical neurons; type: cell-based, mouse; conditions: BDNF 4 h, then CHX plus oxamflatin; vehicle baseline ~47 min
Experimental: Each compound was tested at a concentration of 16.7 µM and in combination with BDNF or alone. Arc mRNA level induced by just BDNF was included in each experiment as a reference. Bars represent mean fold-change (f.c.) normalized to Arc expression measured in untreated cultures and each red point represents fold-change for an individual biological replicate (n = 4). d Primary cortical neurons were treated with BDNF for 4 h to induce Arc expression at which point protein synthesis was blocked by direct addition to culture media of cycloheximide (CHX, 50 µg ml^−1) in presence of vehicle or oxamflatin (16.7 µM). […] It is left out because the vehicle is a control and not a substance.
Specifically, we stimulated the cells with BDNF for 4 h to promote accumulation of Arc protein and then added CHX to block all de novo protein translation. Importantly, cultures treated this way were divided in two groups—one to which oxamflatin was added at the same time as CHX and another that was treated with the vehicle only (baseline measure). […] This experiment provided clear evidence that the impact of oxamflatin on Arc protein abundance is, at least in part, the result of a decrease in the rate of Arc protein degradation; however, a mechanistic explanation of how this KDAC inhibitor is modulating the turnover of Arc protein remained elusive at this point.

[3] = system: Arc puncta in dendrites of primary cortical neurons; assay: Arc puncta along Map2-labeled dendrites (immunocytochemistry); type: cell-based, mouse; conditions: 16.7 µM with BDNF, vs untreated and BDNF alone; for BDNF: BDNF alone vs untreated
From the text: Chemical structure of each compound is presented on top. b Graphs show mean (n = 5) Arc/β-actin ratio (±SEM) for cells treated as in a. […] Tukey’s HSD post hoc test, *p < 0.05; **p < 0.01, ***p < 0.005; ****p < 0.0001. […] Representative captures of DIV14 mouse primary cortical neurons from each experimental condition co-immunostained for Arc (red fluorophore) and Map2 (green fluorophore). White arrowheads show examples of discrete Arc puncta. […] Tukey’s HSD post hoc test, *p < 0.05; ***p < 0.005; ****p < 0.0001
Indirect immunofluorescence detection of antigens was carried out using cortical neurons cultured on poly-L-lysine/laminin-coated coverslips in 24-well plates at a density of 0.1 × 10^7 per well. After experimental treatment, cells were washed twice with PBS and fixed for 30 min at room temperature with 4% paraformaldehyde in PBS. After fixation, cells were washed twice with PBS, permeabilized with PBST (PBS + 0.25% Triton X-100) for 20 min, blocked in blocking solution (PBS + 5% normal goat serum) for another 30 min, and finally incubated overnight at 4 °C with the first primary antibody in blocking solution. The next day, coverslips were extensively washed with PBS and incubated for 2 h at room temperature in the appropriate fluorophore-conjugated secondary antibody solution (Alexa 488- or Alexa 594-conjugated secondary antibody (Molecular Probes, Invitrogen) in blocking solution). After washing with PBS, the coverslips were incubated again overnight in primary antibody solution for the second antigen, and the procedure for conjugation of the fluorophore-conjugated secondary antibody was repeated as above. Finally, cell nuclei were counterstained with 4′,6-diamidino-2-phenylindole (DAPI), and coverslips were mounted on glass slides with ProLong Antifade reagent (Invitrogen).
(§1) Quantification of surface GluA1 puncta was performed according to the following strategy. First, overlapping digital images of GluA1 and Map2 immunostainings were collected using a Zeiss AxioObserver Z1 inverted microscope and ×63 oil immersion objective. Second, thresholding and segmentation based on the Map2 images was used to remove GluA1 signals outside of dendritic processes. Importantly, the same background/foreground cutoff threshold was used for images of all experimental conditions. Third, the length of dendrites for each image set was measured and recorded. Finally, distinct GluA1 foreground objects along dendrites >5 pixels were counted using the particle analysis tool in ImageJ and presented as the average number of GluA1 puncta per µm of dendrite length for each experimental condition.

[4] = system: BDNF-induced nuclear Arc expression in primary cortical neurons; assay: Chemogenomic screen: high-content image-based assay of BDNF-induced nuclear Arc expression (96-well); type: cell-based, mouse
How it was run: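 Nuclear Arc immunofluorescence is quantified automatically within an acetyl-H3K9-defined nuclear mask from ×40 images. Cultures are DIV13 mouse forebrain cortical neurons seeded at 30,000 per well and exposed to BDNF plus compound at a final 16.7 µM, with triplicate biological replicates.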

surface GluA1 = assay: Surface AMPAR (GluA1) imaging along dendrites; type: cell-based, mouse; conditions: 16.7 µM, 6 h with BDNF, vs untreated and BDNF alone; for BDNF: BDNF alone vs baseline
Experimental: Our procedure to label surface AMPARs containing the GluA1 subunit was adapted from two reports[14],[61]. Precisely, DIV14 primary cortical neurons cultured on coverslips were rinsed once with room temperature PBS^MC (PBS containing 0.5 mM CaCl2, 1 mM MgCl2, and 4% sucrose). Live cells were then incubated for 30 min at room temperature with GluA1 primary antibody solution (PBS^MC with antibody against the extracellular N-terminus of GluA1 (EMD Millipore Corp, clone RH95, 5.0 µg ml^−1)). Next, cells were rinsed twice with ice-cold PBS^MC followed by fixation with 4% paraformaldehyde + 4% sucrose solution for 15 min at room temperature. After fixation, neurons were washed with regular PBS and then incubated overnight with Map2 primary antibody solution (PBS with 0.125% Triton X-100, 5% normal goat serum, and anti-Map2 antibody) to label dendrites. Next day, coverslips were washed with PBS, incubated with appropriate secondary antibodies for 1 h at room temperature, and finally mounted on glass slides with ProLong Antifade reagent (Invitrogen).
as §1

Neuro2a cells [5] = conditions: for Fold-change to WT: protein half-life in Neuro2a
From the text: Next, we aimed to determine whether the K24, K33, K55, and K70 residues participate in Arc protein turnover. […] We also included K70 in this experiment because of its position in the coiled-coil and nuclear retention domains of Arc (Fig. 5e) as well as its relative proximity to K55. For this test, we used site-directed mutagenesis to generate plasmids that would allow overexpression of an acetyl-mimic/unmodifiable mutant Arc-Myc-FLAG protein (lysine (K) to glutamine (Q) mutant) for each of these four sites. After transfecting sets of Neuro2a cells with these different constructs, we inhibited translation with CHX and monitored overexpressed protein levels for up to 6 h after.
Lysates were collected at the indicated time points and Arc-Myc-FLAG protein level analyzed in every sample by western blotting with an anti-FLAG antibody. Representative western blots are presented on top and quantification of data normalized to corresponding β-actin and presented as percentage of Arc-Myc-FLAG level (±SEM) at the initial time point after CHX application (t = 0). Curve represents exponential decay fit. b Estimate of protein half-life Arc for WT Arc-Myc-FLAG and each acetyl-mimic mutant is presented in table. c WT and acetyl-mutant Arc-Myc-FLAG polyubiquitination was determined in lysates from overexpressing Neuro2a cells. Lysates were immunoprecipitated with anti-FLAG and western blotted with anti-Ub or anti-Arc as indicated.
Neuro2A cells were cultured in DMEM (supplemented with 10% fetal bovine serum (Gemini-Bio-Products, West Sacramento, CA), penicillin (50 units ml^−1), and streptomycin (50 µg ml^−1)) and transfected overnight using Lipofectamine 2000 (Invitrogen) according to the manufacturer’s protocol. The Neuro2A cell line was generously shared by Dr. Grace Gill.
The pCMV6-Arc-Myc-DDK (FLAG) plasmid (MR206218) was purchased from OriGene Biotechnologies (Rockville, MD). The Arc-Myc-FLAG K24Q, K24R, K33Q, K55Q, K70Q, and K70R plasmids were generated with the help of the Q5 Site-Directed Mutagenesis Kit from New England BioLabs (Ipswich, MA) using WT pCMV6-Arc-Myc-FLAG as template. All constructs were verified by DNA sequencing.

Neuro2a cells [6] = assay: Polyubiquitination of WT and mutant Arc-Myc-FLAG (IP/western) in Neuro2a cells; type: cell-based, mouse; conditions: MG132 10 µM for 20 min
From the text: To assess polyubiquitination of Arc in DIV13 primary cortical neurons, Arc was immunopurified from total lysates using an agarose-conjugated anti-Arc monoclonal antibody (Santa Cruz Biotechnology, clone C-7). Overexpressed WT and mutant Arc-Myc-FLAG in Neuro2a cells were immunopurified from total lysates with anti-FLAG M2 antibody conjugated to magnetic beads (Sigma-Aldrich, M8823). Immunopurified materials were separated using SDS–PAGE and electrophoretically transferred to a nitrocellulose membrane. To enhance the immunodetection of ubiquitin conjugated to Arc, the nitrocellulose membrane was placed between two layers of Whatman filter paper, submerged in distilled water, and autoclaved for 30 min. After autoclaving, the membrane was blocked in blocking solution (TBST supplemented with 5% milk) for 30 min and incubated overnight with an antibody recognizing ubiquitin (Santa Cruz Biotechnology, clone P4D1, 1:200) in blocking solution. Subsequent steps were carried out according to the western blot procedure described above.

## Nc1ncnc2n[nH]c(Nc3ccc(F)cc3)c12 [CGP 57380]
Arc protein [1]; CGP 57380 5 µM co-treated 6 h with BDNF
  effect on BDNF-induced Arc expression (western blot): did not prevent Arc expression
eIF4E phosphorylation
  effect on eIF4E phosphorylation: impacting eukaryotic translation initiation factor 4E (eIF4E) phosphorylation

## oxamflatin
acetyl-H3K9
  impact on acetyl-H3K9 immunofluorescence (Z-score): strong impact
Arc protein [2]
  Arc protein half-life (regression analysis): ~ 112 min
Arc protein [1]; BDNF 6 h supplemented with compound
  total Arc protein vs BDNF plus vehicle control (western blot, Arc/β-actin): significantly more Arc protein
[3]
  number of Arc puncta in dendritic projections: significantly greater number of Arc puncta
[4]
  Percentage of cell with nuclear Arc immunostaining above 2σ threshold: 50.0%
[4]; 16.7 µM, three biological replicates
  rank among potentiators of BDNF-induced nuclear Arc expression in screen: second
[4]; nuclear Arc-positive cells relative to DMSO + BDNF control, negative values = decrease
  Fold-change — Normalized to DMSO control (BDNF): 2.6 fold
Surface GluA1
  surface GluA1 puncta per dendrite µm: significant decrease in surface GluA1 levels

B1: K24Q: acetyl-mimic/unmodifiable mutant Arc-Myc-FLAG, lysine 24 to glutamine (protein, UniProt Q9WV31 1-396, looked up, variant K24Q)
Activity-regulated …: MELDHMTTGGLHAYPAPRGGPAAQPNVILQIGKCRAEMLEHVRRTHRHLLTEVSKQVERELKGLHRSVGKLENNLDGYVPTGDSQRWKKSIKACLCRCQETIANLERWVKREMHVWREVFYRLERWADRLESMGGKYPVGSEPARHTVSVGVGGPEPYCQEADGYDYTVSPYAITPPPAAGELPEQESVEAQQYQSWGPGEDGQPSPGVDTQIFEDPREFLSHLEEYLRQVGGSEEYWLSQIQNHMNGPAKKWWEFKQGSVKNWVEFKKEFLQYSEGTLSREAIQRELELPQKQGEPLDQFLWRKRDLYQTLYVDAEEEEIIQYVVGTLQPKLKRFLRHPLPKTLEQLIQRGMEVQDGLEQAAEPSGTPLPTEDETEALTPALTSESVASDRTQPE
modifications: Myc-FLAG tag
notes: acetyl-mimic/unmodifiable mutant Arc-Myc-FLAG, lysine 24 to glutamine
Neuro2a cells [5]
  Estimated t½: 6.66 h
  Fold-change to WT: 2.40
Neuro2a cells [6]
  polyubiquitination of Arc-Myc-FLAG mutant: noticeable decrease in polyubiquitination

B2: K70Q: acetyl-mimic/unmodifiable mutant Arc-Myc-FLAG, lysine 70 to glutamine (protein, UniProt Q9WV31 1-396, looked up, variant K70Q)
Activity-regulated …: B1 Activity-regulated … with Q24K, K70Q
modifications: Myc-FLAG tag
notes: acetyl-mimic/unmodifiable mutant Arc-Myc-FLAG, lysine 70 to glutamine
Neuro2a cells [5]
  Estimated t½: 6.15 h
  Fold-change to WT: 2.22
Neuro2a cells [6]
  polyubiquitination of Arc-Myc-FLAG mutant: noticeable decrease in polyubiquitination
